pIC50: −log10 of the molar value. Like-named read-outs stand apart in the source and are kept apart here.
Tests used:
[1] = target: T1, androgen receptor LBD (Panvera) (Rattus norvegicus, UniProt P15207); test: Androgen Receptor Filtration Binding Assay (PANVERA)
T1 construct: 5 pmol androgen receptor LBD (Panvera); purchased Panvera
T1 sequence (P15207 651-882 limits assumed): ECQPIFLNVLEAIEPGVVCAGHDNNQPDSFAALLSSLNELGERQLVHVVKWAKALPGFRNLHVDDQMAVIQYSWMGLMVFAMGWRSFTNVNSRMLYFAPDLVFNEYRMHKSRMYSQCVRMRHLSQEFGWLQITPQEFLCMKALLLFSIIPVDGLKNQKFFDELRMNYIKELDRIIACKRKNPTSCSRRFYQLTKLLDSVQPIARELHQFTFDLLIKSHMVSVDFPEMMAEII
Experimental: (§1) The assay was run on a 96 well plate with each well filled with a total reaction volume 150 μL, of a solution containing 5 pmol androgen receptor LBD (Panvera) or 30 μL of freshly prepared rat cytosol, 0.5 nM [^3H] […] (TED buffer contains 10 mM Tris.HCl pH 7.4, 1 mM sodium molybdate, 1.5 mM EDTA, 1 mM DTT and 10% (v/v) glycerol.)
(§2) On day one, the solution containing receptor, tracer and TED buffer was distributed into a 96 well plate. Diluted test compound or control vehicle was then added to individual wells and the plate incubated at 4° C. overnight.
(§3) On day two, to each well was then added 20 μL human γ-globulin (ICN 823102), prepared at 25 mg/ml in TE pH 8.0, and 55 μL 40% polyethylene glycol 8000 (JT Baker U222-08), prepared in TE pH 8.0. The plate was incubated at 4° C. for 60 minutes. During incubation, the harvester was rinsed with 10% PEG 8000, prepared in TE pH 8.0, and a GF/C Unifilter-96 was pre-wet with 10% PEG. The binding reaction was filtered, the retentate was washed three times with 10% PEG and dried under vacuum for a couple of minutes, then dried at 50° C. for 5 min and the plate was bottom sealed. Next, 25 μL of Microscint-20 (Packard) was added to the filter wells and the plate was top sealed. The plate wells were then counted on a TopCount (Packard).
Counts per well were measured and IC50s determined by linear regression.

[2] = target: T2, androgen receptor (rat ventral prostate cytosol) (Rattus norvegicus, UniProt P15207); test: Androgen Receptor Binding Using Rat Ventral Prostate Cytosol; conditions: rat cytosol; for pIC50: read-out: IC50
T2 construct: from tissue; host or cells: ventral prostate of castrated male Sprague Dawley or Wistar rats, cytosol
T2 sequence (P15207 1-902): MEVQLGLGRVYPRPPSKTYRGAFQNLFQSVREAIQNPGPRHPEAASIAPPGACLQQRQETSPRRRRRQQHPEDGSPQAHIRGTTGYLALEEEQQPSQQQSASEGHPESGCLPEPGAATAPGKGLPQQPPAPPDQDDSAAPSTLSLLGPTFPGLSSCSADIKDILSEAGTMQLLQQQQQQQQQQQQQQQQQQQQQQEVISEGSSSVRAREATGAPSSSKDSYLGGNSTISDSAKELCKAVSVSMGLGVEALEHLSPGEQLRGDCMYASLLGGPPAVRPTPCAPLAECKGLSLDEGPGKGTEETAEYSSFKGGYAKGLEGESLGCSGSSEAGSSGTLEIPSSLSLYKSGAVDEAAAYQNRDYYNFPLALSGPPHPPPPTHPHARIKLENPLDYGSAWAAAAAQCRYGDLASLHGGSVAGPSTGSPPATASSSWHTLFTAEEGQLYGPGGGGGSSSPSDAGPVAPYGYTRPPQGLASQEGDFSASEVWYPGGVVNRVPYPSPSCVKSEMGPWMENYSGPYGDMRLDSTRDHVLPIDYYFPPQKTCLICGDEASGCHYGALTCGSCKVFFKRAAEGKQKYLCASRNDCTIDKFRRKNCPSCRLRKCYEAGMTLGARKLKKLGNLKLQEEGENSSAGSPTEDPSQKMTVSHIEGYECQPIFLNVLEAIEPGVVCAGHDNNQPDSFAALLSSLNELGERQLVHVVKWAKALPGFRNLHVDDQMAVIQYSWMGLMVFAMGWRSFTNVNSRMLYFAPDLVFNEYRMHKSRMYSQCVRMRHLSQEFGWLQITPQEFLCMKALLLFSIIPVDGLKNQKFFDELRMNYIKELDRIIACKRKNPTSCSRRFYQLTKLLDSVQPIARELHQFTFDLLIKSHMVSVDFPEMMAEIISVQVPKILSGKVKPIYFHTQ
Experimental: as §1, §2, §3
Rat Prostate Cytosol Preparation:
Male Sprague Dawley or Wistar rats (Charles River, 200-300 g) were used for each preparation. The day before preparing the cytosol, the rats were castrated using standard surgical procedures.
The rats were euthanized by carbon dioxide asphyxiation. The rat prostates were quickly removed and placed on ice in pre-chilled, pre-weighed 50 mL plastic tubes. No more than five prostates were placed into one tube. The tubes were then weighed and the prostate tissue wet weights calculated.
To the chilled prostate tissue was then added […] of chilled homogenization buffer. The homogenization buffer was freshly prepared by mixing 10 mM Tris.HCl, pH 7.4, 1 mM sodium molybdate, 1.5 mM EDTA, 1 mM dithiothreitol, 10% (v/v) glycerol and 1% protease inhibitor cocktail (Sigma P 8340).
The prostate tissue was homogenized in a cold room using a pre-chilled Polytron PT3000 homogenizer (Brinkmann). Homogenization was performed at a speed setting of 20, three times for 10 sec bursts. The tubes containing the prostate tissue was kept on ice while homogenizing. The homogenate was allowed to rest on ice for 20 sec between bursts.
The homogenate was then placed into pre-chilled 3 mL polycarbonate ultracentrifuge tubes and centrifuged in the TLA-100 rotor of a TL-100 ultracentrifuge for 12 min at 100,000 rpm at 4° C. The resulting supernatant was stored in 1 mL aliquots at −80° C. until needed.
Binding to the androgen receptor was determined according to the protocol described in Example 86 using the above prepared rat cytosol.
% Inhibition was determined by testing dilutions of the test compound (usually duplicates of 10 μM) in the binding assay. Counts per well were measured and percents of inhibition determined. […] Counts per well were measured and IC50s determined by linear regression.

[3] = target: T3, androgen receptor (adenovirus AdEasy+rAR in L929 cells) (Rattus norvegicus, UniProt P15207); test: L929 Androgen Receptor Functional Assay, Adenovirus Transduction; assay type: cell-based; conditions: L929 agonist testing; 3000 nM
T3 construct: expressed in transfected cells
T3 sequence (P15207 1-902): T2 sequence (P15207 1-902)
Summary of the method: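 Luminescent reporter readout after 48 h at 37 °C: rat AR delivered by adenovirus (AdEasy+rAR, moi 1:500) into L929 cells grown without phenol red in charcoal-treated serum. Antagonist wells also received R1881 (2.5× dilution at 2.5 nM).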

[4] = test system: testosterone-enhanced ventral prostate and seminal vesicle weights in castrated male Sprague Dawley rats; test: Ventral Prostate and Seminal Vesicle Weight In Vivo Assay; parameters: species or system rat; conditions: immature castrated rats; once daily for five days, usually orally at 40 mg/kg, with testosterone propionate 2 mg/kg s.c.
Summary of the method: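 Immature (~50 g) castrated Sprague Dawley rats dosed once daily for five days with compound (usually oral, 40 mg/kg, cyclodextrin or methylcellulose vehicle) plus testosterone propionate 2 mg/kg s.c. Wet ventral prostate and seminal vesicle weights taken on day six; activity judged by prostate weight or body-weight-adjusted % inhibition.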

[5] = Androgen Receptor Binding (Panvera), 0.5 nM [3H] R1881 tracer

CC(O)(CSc1ccc(Cl)cc1)c1cc2cc(C#N)c(C(F)(F)F)cc2[nH]1 (centres unmarked) [compound 96]
pIC50 [1]: 5.77

CC(O)(Sc1ccccc1)c1cc2cc([N+](=O)[O-])c(C(F)(F)F)cc2[nH]1 (racemic) [compound 258]
pIC50 [1, 5]: 5.61 | % Inhibition ([2]; concentration 1000 nM): 35.4%

CC(O)(SC1CCCCC1)c1cc2cc([N+](=O)[O-])c(C(F)(F)F)cc2[nH]1 (racemic) [compound 256]
pIC50 [1, 5]: 5.58

CC(O)(CS(=O)(=O)Cc1ccccc1)c1cc2cc([N+](=O)[O-])c(C(F)(F)F)cc2[nH]1 (racemic) [compound 162]
% Activity [3]: 2% | active / inactive (inhibition of testosterone-enhanced prostate weight) [4]: inactive | % Inhibition ([2]; concentration 3000 nM): 0.69%

O=[N+]([O-])c1cc2cc(C3(O)CCN(Cc4ccc(Cl)cc4)CC3)[nH]c2cc1C(F)(F)F [compound 41]
% Inhibition ([2]; concentration 1000 nM, 1 µM): 20% | pIC50 [2]: 5.64

COc1ccc(CN2CCC(O)(c3cc4cc(Cl)c(C(F)(F)F)cc4[nH]3)CC2)cc1 [compound 35]
inhibition at 1 µM ([2]; concentration 1000 nM): -19% | pIC50 [2]: 5.38

COc1cccc(CN2CCC(O)(c3cc4cc([N+](=O)[O-])c(C(F)(F)F)cc4[nH]3)CC2)c1 [compound 38]
% Inhibition ([2]; concentration 1000 nM, 1 µM): 16% | pIC50 [2]: 5.06

CC(O)(Sc1ccc(N)cc1)c1cc2cc([N+](=O)[O-])c(C(F)(F)F)cc2[nH]1 (racemic) [compound 266]
% Activity [3]: −4% | active / inactive (inhibition of testosterone-enhanced prostate weight) [4]: inactive | % Inhibition ([2]; concentration 3000 nM): 12.4%

CC(C)(C)c1ccc(CN2CCC(O)(c3cc4cc(Cl)c(C(F)(F)F)cc4[nH]3)CC2)cc1 [Compound #32]
inhibition at 1 µM ([2]; concentration 1000 nM): 34% | pIC50 [2]: 4.37

OC1(c2cc3cc(Cl)c(C(F)(F)F)cc3[nH]2)CCN(Cc2ccc(F)cc2)CC1 [compound 28]
inhibition at 1 µM ([2]; concentration 1000 nM): -3.4% | pIC50 [2]: 5.15

Cc1ccc(CN2CCC(O)(c3cc4cc(Cl)c(C(F)(F)F)cc4[nH]3)CC2)cc1 [compound 30]
inhibition at 1 µM ([2]; concentration 1000 nM): -7.7% | pIC50 [2]: 5.39

OC1(c2cc3cc(Cl)c(C(F)(F)F)cc3[nH]2)CCN(Cc2ccccc2)CC1 [Compound #22]
pIC50 [1, 5]: < 5.02

CC(O)(Sc1ccc(Cl)cc1)c1cc2cc([N+](=O)[O-])c(C(F)(F)F)cc2[nH]1 (racemic) [compound 259]
pIC50 [1, 5]: 6.04

O=[N+]([O-])c1cc2cc(C3(O)CCN(Cc4ccc(Cl)c(Cl)c4)CC3)[nH]c2cc1C(F)(F)F [compound 43]
inhibition at 1 µM ([2]; concentration 1000 nM): 5.8% | pIC50 [2]: 5.04

CS(=O)(=O)n1c(C2(O)CCN(C(=O)c3ccc(Cl)cc3)CC2)cc2cc(Cl)c(C(F)(F)F)cc21 [compound 24]
% Inhibition ([2]; concentration 1000 nM): 2%

CC(O)(COC(=O)c1ccccc1Cl)c1cc2cc([N+](=O)[O-])c(C(F)(F)F)cc2[nH]1 (centres unmarked) [compound 54]
pIC50 [1]: 6.33

CC(O)(SC1CCCCC1)c1cc2cc(C#N)c(C(F)(F)F)cc2[nH]1 (racemic) [compound 257]
pIC50 [1, 5]: 5.29

OC1(c2cc3cc(Cl)c(C(F)(F)F)cc3[nH]2)CCN(Cc2ccc(Cl)cc2)CC1 [compound 31]
inhibition at 1 µM ([2]; concentration 1000 nM): 20% | pIC50 [2]: 5.39

CC(C)SC(C)(CO)c1cc2cc([N+](=O)[O-])c(C(F)(F)F)cc2[nH]1 (racemic) [compound 268]
% Activity [3]: 9% | active / inactive (inhibition of testosterone-enhanced prostate weight) [4]: inactive | % Inhibition ([2]; concentration 3000 nM): −3.3%

CN(C)c1ccc(S(=O)(=O)CC(C)(O)c2cc3cc(Cl)c(C(F)(F)F)cc3[nH]2)cc1 (racemic) [compound 126]
% Activity [3]: −5% | active / inactive (inhibition of testosterone-enhanced prostate weight) [4]: inactive | % Inhibition ([2]; concentration 3000 nM): −30%

CC(O)(c1cc2cc([N+](=O)[O-])c(C(F)(F)F)cc2[nH]1)S(=O)(=O)c1ccc(Cl)c(Cl)c1 (racemic) [compound 255]
% Inhibition ([2]; concentration 1000 nM): 26%

CC(O)(CSc1ccc(F)cc1)c1cc2cc(Cl)c(C(F)(F)F)cc2[nH]1 (centres unmarked) [compound 83]
pIC50 [1, 5]: 6.80

OC1(c2cc3cc(Cl)c(C(F)(F)F)cc3[nH]2)CCN(Cc2ccc(C(F)(F)F)cc2)CC1 [Compound #33]
inhibition at 1 µM ([2]; concentration 1000 nM): 11% | pIC50 [2]: 4.54

Source: patent US8394971B2, “Indole derivatives as selective androgen receptor modulators (SARMS)” (Janssen Pharmaceutica N.V., priority 2004, dated 2013)
